Results published in patent US11801000B2, “Hormone electrochemical biosensor” (Trustees of Boston University, priority 2021, dated 2023).
Entries after “also recorded” stand apart in the source; their conditions may differ.

B1: 3-ketosteroid-Δ1-dehydrogenase enzyme 1 (protein)
chain: MDWAEEYDVLVAGSGAGGMAGTYTAAREGLSVCLVEAGDKFGGTTAYSGGGGAWFPANPVLLRAGTDDTIEDALEYYRAVVGDRTPADLQETYVRGGAGLVAYLEEDDHFSFESYPWPDYFGDAPKARRDGQRHIIPTPLPVPSAPELREVVRGPLDNDRLGTPQPDDLFIGGRALVARFLTALATYPHATLVRETALAELVVEDGVVVGAIVETDGVRRAIRARRGVLLAAGGFEANDELRQKYGVPGVARDTMGPPTNVGAAHQAAIAVGADTDLMGEAWWSPGLTHPDGRSAFALWFTGGIFVDGAGRRFVNESAPYDRLGRAVIDHLTEGGVTPRYWMVYDHKEGSIPPVRATNVSMVDEEQYVAAGLWHTADTLPELAALIGVPADALVATVARFNELVADGYDADFGRGGEAYDRFFSGGEPPLVSIDEGPFHAAAFGISDLGTKGGLRTDTSARVLTADGTPIGGLYAAGNTMAAPSGTTYPGGGNPIGTSMLFSHLAVRHMGTEDARGSHHHHHH
modifications: 6xHis tag

How the values were obtained:
[1] = Cyclic voltammetry, electroactivity on DS110 carbon SPE; assay type: physicochemical
[2] = tested on: KSDH1; assay: Amplex UltraRed assay (H2O2 detection by fluorescence); assay type: biochemical, Pimelobacter simplex; conditions: 500 μM final PRG, CRT; 4.56 μM KSDH1; normalized (analytes without enzyme subtracted)
Procedure: FIGS. 6A-6B are schematics and graphs detailing the Amplex® UltraRed Reagent assay in which fluorescence is analyte limited, not enzyme limited. FIG. 6A is a schematic showing the Amplex® UltraRed mechanism for oxidase enzymes. Hormone is oxidized into product and H2O2 with presence of […] and O2. Horseradish peroxidase (HRP) then oxidizes Amplex® UltraRed in the presence of H2O2 into resorufin, which is fluorescent.
In Vitro Enzyme Characterization: Amplex® UltraRed assays were performed per instruction of the manufacturer (Thermo Fisher Scientific, Cambridge, Mass.). Final concentrations of Amplex® UltraRed, 500 uM, and HRP, 1 U/mL, in a total volume of 20 μL were used. Hormone and KSDH1 and KSDH2 concentrations varied with experiment. All measurements of fluorescence were done in a 384 well flat bottom black polystyrene microplate (Corning Inc.™, Corning, N.Y.) and read in an Infinite M200 Pro™ (TECAN Group Ltd.™, Medford, Mass.) spectrophotometer at room temperature with the excitation set to 490 nm and emission at 585 nm. Readings were done over 1 hour with each well read every 30 seconds.
(§1) The FAD-binding (KSDH1) enzyme was used to develop and optimize a hormone electrochemical biosensor. […] KSDH1 was also assessed using a DCPIP Assay to test whether it is a dehydrogenase.

[3] = tested on: KSDH1; assay: 2,6-Dichlorophenolindophenol (DCPIP) dehydrogenase functional assay; assay type: biochemical, Pimelobacter simplex; conditions: for Binding affinity, kinetics derived from velocity by hormone concentration experiment: FIG. 9C-9D
Procedure: A 2,6-Dichlorophenolindophenol functional assay was used to test whether KSDH1 is a dehydrogenase (FIG. 9A).
as §1

[4] = tested on: Pimelobacter simplex; assay: RNA-Seq of Pimelobacter simplex in the presence of hormone; assay type: cell-based; conditions: P. simplex grown in the presence of progesterone
Procedure: FIG. 3 is a series of graphs showing that RNA-Seq identified the steroid degrading genome cluster in Pimelobacter simplex.
Strain RNA Extraction: Cells were grown in 5 mL M18 at a starting OD600 of 0.005 with 21.6 μM hormone in 14 mL polypropylene round-bottom tubes (Corning Inc.™, Corning, N.Y.) in singlet. The cells were incubated at 30° C. with continuous orbital shaking at 150 rpm until the end of lag-phase (3 hours) and mid-log phase (7.5 hours) from the start of inoculation. Controls were grown in the same conditions without hormone. […] RNA samples were subsequently quantified using Qubit RNA HS Assay Kit™ (Thermo Fisher Scientific Inc.™, Cambridge, Mass.) and analyzed using a RNA 6000 Pico Kit™ (Agilent Technologies Inc.™, Santa Clara, Calif.) in a 2100 Bioanalyzer™ (Agilent Technologies Inc.™, Santa Clara, Calif.). […]
RNA-Seq Library Preparation: After RNA samples have been quantified and analyzed they were DNase treated using TURBO™ DNase 2 U/μL (Thermo Fisher Scientific Inc™ Cambridge, Mass.) and cleaned using Agencourt RNAClean™ XP SPRI beads (Beckman Coulter, Inc.™, Brea, Calif.). […] Whole transcriptome RNA sequencing was performed by a NextSeq 500™ (Illumina Inc.™, San Diego, Calif.) at high output (400 M reads) with 75 bp paired end sequencing read length. The data was then analyzed in-house through a proprietary lab computational pipeline.

[5] = KSDH1 stability (storage, immobilizing polymer) on biosensor; assay type: physicochemical
Source text: FIG. 27. KSDH1 precipitation in the presence of chitosan, an immobilizing polymer, is evident.
FIG. 30A-B. Glutaraldehyde immobilization decreases signal (FIG. 30A).

[6] = DS110, DMSO as solvent (FIG. 16A)
[7] = DS110, EtOH as solvent (FIG. 16B)

| Molecule | Electroactivity by cyclic voltammetry [1, 6] | Electroactivity by cyclic voltammetry [1, 7] | KSDH1 response (fluorescence signal) to analyte [2] | Binding affinity, kinetics derived from velocity by hormone concentration experiment [3] | Expression of sterol responsive enzymes KSDH1 and KSDH2 (SRGI cluster) [4] | KSDH1 sensitivity in sterol screen (DCPIP reduction, absorbance at OD600 nm) ([3]; sterol screen, FIG. 9B) | Behaviour in the presence of chitosan, an immobilizing polymer ([5]; FIG. 27) | Current output after storage ([5]; storage at 4 C for 1 week, two electrode configuration, DS110, +0.4V) |
| --- | --- | --- | --- | --- | --- | --- | --- | --- |
| C[C@]12CCC(=O)C=C1CC[C@@H]1[C@@H]2[C@@H](O)C[C@@]2(C)[C@H]1CC[C@]2(O)C(=O)CO [Cortisol, hydrocortisone] | not electroactive | not electroactive | increase of fluorescence; also recorded: responsive | strong | – | – | – | – |
| CC(=O)[C@H]1CC[C@H]2[C@@H]3CCC4=CC(=O)CC[C@]4(C)[C@H]3CC[C@]12C [Progesterone, progesterone] | not electroactive | not electroactive | increase of fluorescence; also recorded: responsive | strong | highly expressed | DCPIP was reduced; also recorded: high sensitivity | – | – |
| B1 | – | – | – | – | – | – | precipitation | no change in current output |
